Results published in patent publication US20100022509A1, “Inhibitors of MshC and Homologs Thereof, and Methods of Identifying Same” (priority 2006, published 2010).
pIC50: −log10 of the molar value. Converted amounts (≈) assume the structure as drawn.

Tests used:
Assay type in all cases: cell-based
[1] = system: M. smegmatis; experiment: Growth of M. smegmatis parent and MSH mutant strains in the presence of INH
Experimental: Using the parental strain mc^2155, the Myco504 mutant in mshB that produces 5-10% of normal MSH in exponential growth, and the mutant strain 49 that produces 0% of normal MSH, the effect of 0-30 μg per ml INH upon growth was examined. […] This is seen in FIG. 13 for growth in the presence of 10 μg per ml INH.

[2] = system: mycothiol biosynthesis in M. smegmatis mc^2155; experiment: Inhibitor studies with Mycobacterium smegmatis: GlcN-Ins and MSH content by HPLC; conditions: 30 μM, after 12 h
Experimental: (§1) Inhibitor studies with Mycobaterium smagmatis. An exponential culture of M. smegmatis mc^2155 in Middlebrook 7H9 medium containing 0.05% Tween 80 and 1% glucose was used to inoculate a culture in the same medium but with 0.4% glucose to A600=0.05. The inhibitor NTF1836 was added from a stock solution in Me2SO at 0, 10, 20, 30 and 40 μM to duplicate 40 ml aliquots of the culture in 125 ml flasks to produce a final Me2SO content of ≦0.04%. The cells were incubated at 37° C. and 250 rpm. At A600˜0.25 and subsequent doublings in cell density, a volume of culture was removed sufficient to provide analysis of GlcN-Ins and MSH as described above.

[3] = system: Mycobacterium smegmatis mc^2155 ATCC 700084; experiment: MIC by broth dilution assay
[4] = system: Staphylococcus aureus; experiment: MIC by broth dilution assay; conditions: for MIC: n = 3
[5] = system: Enterococcus faecalis ATCC 29212; experiment: MIC by broth dilution assay
[6] = system: M. smegmatis mc^2155; experiment: Inhibitor studies with Mycobacterium smegmatis: growth
Experimental: as §1

[7] = system: MshC within M. tuberculosis; experiment: Mycothiol and GlcN-Ins content of M. tuberculosis, day 7
[8] = system: M. tuberculosis; experiment: Growth of M. tuberculosis in broth culture, 7 days (optical density, plate counts); conditions: for OD600: day 7, starting OD600 0.08

## NNC(=O)c1ccncc1 [INH, isoniazid]
[1]; 2 μg per ml INH and above
  growth of strain 49 (0% MSH): no effect
  growth of strain mc^2155: became inhibited
[1]; 10 μg per ml INH
  growth of strain 49 (0% MSH): grows at the same rate as in the absence of INH
  growth of strain Myco504 (5-10% MSH): markedly inhibited
  growth of strain mc^2155: markedly inhibited

## CN(CCCNC(=O)c1ccc2c(c1)N(Cc1cccc(Cl)c1)C(=O)c1ccccc1[S+]2[O-])C1CCCCC1 (centres unmarked) [NTF1836]
[2]
  GlcN-Ins content: twice the normal level
[3]; M. smegmatis
  growth inhibition, in words: inhibitory
[3]; Mycolicibacterium smegmatis, ATCC700084|MC^2155, Middlebrook 7H9 + 1% glucose, n = 3
  MIC: 16 µg/mL
[4]; ATCC25923, Staphylococcus aureus ATCC 25923, TSB
  MIC: 128 µg/mL (≈ 227 µM)
[4]; Staphylococcus aureus
  growth inhibition, in words: inhibitory
[4]; Staphylococcus aureus RN450, TSB
  MIC: 64 µg/mL (≈ 113 µM)
[5]
  growth inhibition, in words: inhibitory
[5]; ATCC29212, Todd Hewitt, n = 3
  MIC: 64 µg/mL (≈ 113 µM)
[6]; 30 μM
  growth rate: half the normal rate
[6]; 40 μM, after 8 h
  growth: completely inhibited
[7]; 20 uM
  GlcN-Ins: 2.77 ± 0.09 nmoles/10^9 bacteria
  GlcN-Ins/mycothiol: 0.09
  mycothiol: 27.8 ± 2.5 nmoles/10^9 bacteria
[7]; 30 uM
  GlcN-Ins: 3.49 ± 0.10 nmoles/10^9 bacteria
  GlcN-Ins/mycothiol: 0.18
  mycothiol: 19.1 ± 2.5 nmoles/10^9 bacteria
[7]; 50 uM
  GlcN-Ins: 4.28 nmoles/10^9 bacteria
  GlcN-Ins/mycothiol: 0.428
  mycothiol: 10.0 nmoles/10^9 bacteria
[7]; 75 uM
  GlcN-Ins: 4.22 nmoles/10^9 bacteria
  GlcN-Ins/mycothiol: 1.21
  mycothiol: 3.5 nmoles/10^9 bacteria
[8]; 20 uM
  OD600: 1.304 ± 0.014
[8]; 30 uM
  OD600: 0.600 ± 0.049
[8]; 50 uM
  OD600: 0.271
[8]; 75 uM
  OD600: 0.12
[8]; Mycobacterium tuberculosis, 168 h, 7 days, by optical density and by plate counts of viable bacteria, read-out: IC50 for growth inhibition of M. tuberculosis
  pIC50: 4.52 to 4.70
